Experimental data reported in ChEMBL document CHEMBL1201862, “PubChem BioAssay data set” (2004).
The source made the active and inactive calls. For most assays here, no stated cut-off is given here; in the data, actives have a measured EC50 and inactives only a lower limit.

Legend:
[1] = cytotoxicity in HEK-293T cells, dose response, cytotoxicity control for TCR NF-kB inhibitor project, luminescence, T-cell screen hits (AID 489026); type: functional, cell-based;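 further: cells exposed to compound about 14 hours before the viability readout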
[2] = Luminescence-based counterscreen assay for KLF5 inhibitors: dose response cell-based high throughput screening assay to identify cytotoxic compounds using the IEC-6 intestinal epithelial cell line. [Related pubchem assays: 1700 (Primary screen.), 1834 (Confirmation screen.), 1858 (Summary AID.), 1905 (Counterscreen.)]; type: functional
[3] = ZM109 Env clade C HIV-1 fusion inhibitors, dose response, HeLa effector, CEM target cells, luciferase, cherry-pick (AID 652058); type: functional, cell-based
[4] = inhibitors of SNCA 5'UTR-driven reporter translation, confirmation, H4 neuroglioma cells, luminescence (AID 1988); type: functional, cell-based
[5] = off-target signal loss in HeLa-CEM21 co-culture – HeLa F-luc CTL cells, cherry-picked, counter-screen for HIV-1 Env fusion inhibitor project, dose response (AID 652040); type: functional, cell-based;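 further: potency for signal decrease marking cytotoxic or nonspecific inhibition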
[6] = molecular target: T1, Luciferin 4-monooxygenase (Photinus pyralis, UniProt P08659); assay: firefly luciferase enzyme inhibitors, dose response, biochemical, luminescence (AID 1891)
T1 sequence (P08659 whole entry): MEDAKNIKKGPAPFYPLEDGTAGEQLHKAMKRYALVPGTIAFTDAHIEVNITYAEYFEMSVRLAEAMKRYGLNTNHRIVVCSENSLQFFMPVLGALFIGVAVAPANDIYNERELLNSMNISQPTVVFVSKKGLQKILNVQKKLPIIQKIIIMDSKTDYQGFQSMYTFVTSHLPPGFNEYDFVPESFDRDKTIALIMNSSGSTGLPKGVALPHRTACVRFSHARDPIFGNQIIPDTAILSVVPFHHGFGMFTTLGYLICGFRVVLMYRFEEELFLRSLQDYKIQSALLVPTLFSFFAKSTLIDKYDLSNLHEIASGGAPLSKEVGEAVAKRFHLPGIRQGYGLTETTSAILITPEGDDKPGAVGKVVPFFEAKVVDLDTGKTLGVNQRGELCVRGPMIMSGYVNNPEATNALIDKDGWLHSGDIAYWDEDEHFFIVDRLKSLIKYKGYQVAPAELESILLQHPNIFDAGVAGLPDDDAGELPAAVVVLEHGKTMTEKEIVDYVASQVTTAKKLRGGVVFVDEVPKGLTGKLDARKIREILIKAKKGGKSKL

[7] = Luminescence Cell-Based Dose Confirmation HTS to Identify Inhibitors of Platelet Dense Granule Release. [Related pubchem assays: 1663 (Primary HTS), 1678 (Summary of Project)]; type: functional
[8] = Luminescence Cell-Based Dose Response HTS to Identify Inhibitors of 5'UTR Stem-Loop Driven Prion Protein mRNA Translation in H4 Neuroglioblastoma Cells. [Related pubchem assays: 1827 (Project Summary), 1813 (Primary HTS)]; type: functional
[9] = inhibitors of clade B AD8 Env fusion, dose response, cell-based, cherry-pick (AID 652062); type: functional;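 further: luciferase signal from cell-cell fusion driven by HIV-1 clade B AD8 Env; potency is for inhibitors of fusion seen as a drop in luminescence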
[10] = Fluorescence Cell-Based Dose Response to Identify Inhibitors of Thrombin Receptor-Activating Peptide SFLLRN-Mediated P-Selectin Induction on Platelets. [Related pubchem assays: 1663 (Primary HTS), 1889 (retest at dose ), 1891 (counterscreen), 1678 (Project Summary)]; type: functional
[11] = inhibitors of HIV Env-driven cell fusion, dose response, cherry-pick (AID 652057); type: functional, cell-based
[12] = molecular target: T1, Luciferin 4-monooxygenase; assay: Counter Screen for Luciferase-based Assay Positives. [Related pubchem assays: 620, 618, 411 ]
[13] = CEM21 lymphoblast cell cytotoxicity, dose response, cytotoxicity control for viral fusion inhibitor project, CellTiter-Glo luminescence, cherry-picked (AID 652042); type: functional, cell-based;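 further: potency for signal decrease meaning cytotoxicity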
HT-1080 = assay: cytotoxicity in HT1080 fibrosarcoma cells, cell-based, fluorescence readout (AID 620); type: functional; details: Homo sapiens
[14] = inhibitors of firefly luciferase expression or activity, dose response, H4 neuroglioma cells, luminescence (AID 1990); type: functional, cell-based
[15] = molecular target: T2, Heat shock factor protein 1 (Mus musculus, UniProt P38532); assay: inhibition of MG132-induced HSE-luciferase signal, confirmation, cell-based, NIH3T3, luminescence, dose retest (AID 2382); type: functional;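 further: NIH3T3 fibroblasts with HSF1-driven luciferase reporter stressed by proteasome inhibitor MG132; luminescence from HSF1-driven luciferase expression after 8 hours of MG132 stress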
T2 sequence (P38532 whole entry): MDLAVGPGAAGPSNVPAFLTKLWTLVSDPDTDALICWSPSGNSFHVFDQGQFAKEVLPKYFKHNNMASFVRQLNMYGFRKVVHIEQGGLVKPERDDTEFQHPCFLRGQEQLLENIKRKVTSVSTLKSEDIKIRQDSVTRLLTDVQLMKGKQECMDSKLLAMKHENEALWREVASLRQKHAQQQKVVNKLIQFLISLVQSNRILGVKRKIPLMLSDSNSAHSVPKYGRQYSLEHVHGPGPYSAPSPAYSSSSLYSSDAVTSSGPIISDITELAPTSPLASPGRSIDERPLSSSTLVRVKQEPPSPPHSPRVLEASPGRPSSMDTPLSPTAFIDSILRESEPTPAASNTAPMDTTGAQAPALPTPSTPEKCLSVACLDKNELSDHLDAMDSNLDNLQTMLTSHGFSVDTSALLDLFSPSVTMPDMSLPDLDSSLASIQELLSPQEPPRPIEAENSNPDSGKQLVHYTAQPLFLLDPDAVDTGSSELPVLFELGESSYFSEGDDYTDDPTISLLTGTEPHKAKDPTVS

[16] = inhibitors of SNCA 5'UTR-driven translation, confirmation, luminescence, H4 neuroglioblastoma cells, dose confirmation (AID 2454); type: functional, cell-based;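 further: H4 neuroglioblastoma cells carrying an alpha-synuclein 5'UTR luciferase reporter; potency for inhibition of the luciferase signal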
[17] = inhibitors of intracellular T. cruzi replication, confirmation, NIH3T3 host cells, beta-gal luminescence (AID 2044); type: functional, cell-based;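 further: intracellular parasites grown in NIH/3T3 mouse fibroblasts as host cells; luminescent beta-galactosidase reporter signal from transgenic T. cruzi replicating inside host cells; inhibitors lower the luminescence signal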
[18] = cytotoxicity toward NIH3T3 fibroblasts, dose response, counter-screen, cell-based, ATP luminescence, mouse fibroblasts (AID 2010); type: functional;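 further: cells exposed to compound for about 90 hours before reading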
cells = type: functional, cell-based
[19] = luciferase reporter signal reduction – luminescence, H4-C neuroglioblastoma cells, dose response (AID 2458); type: functional, cell-based;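 further: H4 neuroglioblastoma cells stably carrying a luciferase reporter gene fusion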
[20] = molecular target: T3, Carboxy-terminal domain RNA polymerase II polypeptide A small phosphatase 1 (Homo sapiens, UniProt Q9GZU7); assay: inhibitors of CTDSP1, concentration-response testing, biochemical assay, absorbance-based, actives from ultra-high-throughput screening (AID 540297); type: functional
T3 sequence (Q9GZU7 whole entry): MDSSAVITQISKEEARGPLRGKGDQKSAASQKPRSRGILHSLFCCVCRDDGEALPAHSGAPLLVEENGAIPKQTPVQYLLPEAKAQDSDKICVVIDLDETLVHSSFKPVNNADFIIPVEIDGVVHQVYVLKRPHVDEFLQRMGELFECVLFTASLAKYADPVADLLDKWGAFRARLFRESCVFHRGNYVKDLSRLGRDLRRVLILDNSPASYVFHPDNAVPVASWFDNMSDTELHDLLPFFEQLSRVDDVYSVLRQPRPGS

NS3 = NS3 (Hepatitis C virus, UniProt A3EZJ3); assay: PubChem AID 2173; set-up: species or system Hepacivirus hominis
Sequence of NS3 (A3EZJ3 whole entry): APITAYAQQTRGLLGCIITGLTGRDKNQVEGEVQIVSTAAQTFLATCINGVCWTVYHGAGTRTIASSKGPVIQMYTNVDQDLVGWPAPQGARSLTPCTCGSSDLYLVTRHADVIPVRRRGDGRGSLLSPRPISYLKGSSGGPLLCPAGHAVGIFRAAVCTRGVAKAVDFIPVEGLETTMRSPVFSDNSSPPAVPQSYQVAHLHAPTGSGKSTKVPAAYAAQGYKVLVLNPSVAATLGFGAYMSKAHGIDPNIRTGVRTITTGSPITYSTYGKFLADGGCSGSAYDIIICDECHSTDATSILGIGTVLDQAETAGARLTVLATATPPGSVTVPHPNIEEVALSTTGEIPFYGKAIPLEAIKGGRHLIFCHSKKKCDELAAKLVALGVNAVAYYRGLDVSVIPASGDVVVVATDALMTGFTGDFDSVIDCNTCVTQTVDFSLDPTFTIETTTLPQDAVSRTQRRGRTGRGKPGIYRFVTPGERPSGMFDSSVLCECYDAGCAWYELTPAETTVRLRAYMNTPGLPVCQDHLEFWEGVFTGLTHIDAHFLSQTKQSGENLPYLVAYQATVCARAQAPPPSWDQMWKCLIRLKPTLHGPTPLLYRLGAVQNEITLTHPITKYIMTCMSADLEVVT

For `COC(=O)c1nn(-c2ccc3c(c2)CCN3C(C)=O)cc1O`, which IC50 [1] is on record?
Its IC50 is > 80 µM (inactive).

What about the IC50 [2] of the same molecule?
Its IC50 is > 39.8 µM (not active).

And the AC50 [3]?
Its AC50 is 18.5 µM (active).

What about the EC50 [4] of the same molecule?
The EC50 was 1.78 µM (active).

What about the AC50 [5] of the same molecule?
The AC50 was 3.07 µM (active).

What about the EC50 [6] of the same molecule?
The EC50 was 15.8 µM (active).

And the EC50 [7]?
Its EC50 is 1.06 µM (active).

What about the EC50 [8] of the same molecule?
Its EC50 is 0.29 µM (active).

And the AC50 [9]?
The AC50 was 6.43 µM (active).

What about the EC50 [10] of the same molecule?
The EC50 was < 100 µM (not active).

What about the AC50 [11] of the same molecule?
The AC50 was 5.72 µM (active).

And the EC50 [12]?
The EC50 was > 100 µM (not active).

What about the AC50 [13] of the same molecule?
Its AC50 is 45.5 µM (active).

And the EC50 (HT-1080)?
The EC50 was > 50 µM (not active).

And the EC50 [14]?
Its EC50 is 2.45 µM (inconclusive).

And the EC50 [15]?
Its EC50 is 0.665 µM (active).

What does the source list for `CC(=O)O[C@@]12CO[C@@H]1C[C@H](O)[C@@]1(C)C(=O)[C@H](O)C3=C(C)[C@@H](OC(=O)[C@H](O)[C@@H](NC(=O)c4ccccc4)c4ccccc4)C[C@@](O)([C@@H](OC(=O)c4ccccc4)C12)C3(C)C` (some centres not stated)?
IC50 [1]: > 80 µM (inactive); EC50 [4]: < 0.1 µM (active); EC50 [8]: > 120 µM (not active); EC50 [16]: 1.16 µM (active); EC50 [17]: 0.132 µM (active); EC50 [18]: 6.71 µM (active); EC50 (cells): 1.78 µM (active); EC50 [14]: 9.95 µM (active); EC50 [19]: 1.21 µM (active)

With `N#C/C(=C\c1ccc(OCc2ccc(C(=O)O)cc2)cc1)C(=O)NCc1ccccc1` as the molecule, how does the IC50 [20] read?
Its IC50 is 7.1 µM (active).

What about the IC50 (NS3) of the same molecule?
Its IC50 is 7.07 µM (active).
